From patent US11517568B2, “Compounds and methods for treating nematode infections” (The Governing Council of The University of Toronto, priority 2018, dated 2022)
Where two headings read alike, the source gives them in different places.

Experiments:
[1] = tested on: L3 animals; assay: Abnormal locomotory behaviour of L3 animals on solid agar (extended SAR); format: in vivo, Caenorhabditis elegans; conditions: for pest or weed control at 3.75 µM / pest or weed control at 15 µM / pest or weed control at 60 µM: Caenorhabditis elegans
Procedure: 20 animals were scored after either 1, 6 or 24 hours of exposure to drug (as indicated) per replicate. […] Data are reported as the mean % of animals with abnormal phenotype over 4 independent replicates.

[2] = tested on: wild type fourth-stage C. elegans larvae (L4s); assay: Locomotory defects (coiled and/or paralysis) in wild type fourth-stage C. elegans larvae on solid substrate; format: in vivo, Caenorhabditis elegans; conditions: for Activity (%): percent of animals that show coiled and/or paralysis: 60 μM, after 60 min on solid substrate, L4 C. elegans
Procedure: A preliminary first round of SAR analyses using analogs of exemplary compound Ia was performed and the analogs' ability to induce locomotory defects in wild type fourth-stage C. elegans larvae (L4s) was tested.
If phenotype is observed, a dose-response analysis is performed.

[3] = 3.75 uM, 1 h exposure, L3, mean of 4 replicates, read-out: % any phene 1 h (conc.) 3.75
[4] = 3.75 uM, 6 h exposure, L3, mean of 4 replicates, read-out: % any phene 6 h (conc.) 3.75
[5] = 3.75 uM, 24 h exposure, L3, mean of 4 replicates, read-out: % any phene 24 h (conc.) 3.75
[6] = 15 uM, 1 h exposure, L3, mean of 4 replicates, read-out: % any phene 1 h (conc.) 15
[7] = 15 uM, 6 h exposure, L3, mean of 4 replicates, read-out: % any phene 6 h (conc.) 15
[8] = 15 uM, 24 h exposure, L3, mean of 4 replicates, read-out: % any phene 24 h (conc.) 15
[9] = 60 uM, 1 h exposure, L3, mean of 4 replicates, read-out: % any phene 1 h (conc.) 60
[10] = 60 uM, 6 h exposure, L3, mean of 4 replicates, read-out: % any phene 6 h (conc.) 60
[11] = 60 uM, 24 h exposure, L3, mean of 4 replicates, read-out: % any phene 24 h (conc.) 60
[12] = 1 h, read-out: % any phene 1 h (conc.) 3.75
[13] = 1 h, read-out: % any phene 1 h (conc.) 15
[14] = 1 h, read-out: % any phene 1 h (conc.) 60
[15] = 6 h, read-out: % any phene 6 h (conc.) 3.75
[16] = 6 h, read-out: % any phene 6 h (conc.) 15
[17] = 6 h, read-out: % any phene 6 h (conc.) 60
[18] = 24 h, read-out: % any phene 24 h (conc.) 3.75
[19] = 24 h, read-out: % any phene 24 h (conc.) 15
[20] = 24 h, read-out: % any phene 24 h (conc.) 60
[21] = 3.75 uM, 1 h exposure, L3, mean of 4 replicates
[22] = 3.75 uM, 6 h exposure, L3, mean of 4 replicates
[23] = 3.75 uM, 24 h exposure, L3, mean of 4 replicates
[24] = 15 uM, 1 h exposure, L3, mean of 4 replicates
[25] = 15 uM, 6 h exposure, L3, mean of 4 replicates
[26] = 15 uM, 24 h exposure, L3, mean of 4 replicates
[27] = 60 uM, 1 h exposure, L3, mean of 4 replicates
[28] = 60 uM, 6 h exposure, L3, mean of 4 replicates
[29] = 60 uM, 24 h exposure, L3, mean of 4 replicates

SMILES | pest or weed control at 3.75 µM [1, 3] | pest or weed control at 3.75 µM [1, 4] | pest or weed control at 3.75 µM [1, 5] | pest or weed control at 15 µM [1, 6] | pest or weed control at 15 µM [1, 7] | pest or weed control at 15 µM [1, 8] | pest or weed control at 60 µM [1, 9] | pest or weed control at 60 µM [1, 10] | pest or weed control at 60 µM [1, 11] | Activity (%): percent of animals that show coiled and/or paralysis [2] | also measured
Fc1ccc(N2CCN(C3CCCCCC3)CC2)cc1 [Iaa] | 45% | 6.7% | 0% | 89.2% | 27.5% | 0% | 100% | 97.5% | 69.2% |  | 
CC1CCC(N2CCN(c3ccc([N+](=O)[O-])cc3)CC2)CC1 (centres unmarked) [Ib] |  |  |  |  |  |  |  |  |  | 87% +/− 3.7 | pest or weed control at 3.75 µM [1, 12]: 3.3%; pest or weed control at 15 µM [1, 13]: 97.5%; pest or weed control at 60 µM [1, 14]: 100%; pest or weed control at 3.75 µM [1, 15]: 0%; pest or weed control at 15 µM [1, 16]: 93.3%; pest or weed control at 60 µM [1, 17]: 100%; pest or weed control at 3.75 µM [1, 18]: 0%; pest or weed control at 15 µM [1, 19]: 73.3%; pest or weed control at 60 µM [1, 20]: 100%
CC1CCC(N2CCN(c3ccc(F)cc3)CC2)CC1 (centres unmarked) [Ibb] |  | 5% | 0% |  | 75.8% | 13.3% | 100% | 100% | 100% |  | 
CCC1CCC(N2CCN(c3ccc([N+](=O)[O-])cc3)CC2)CC1 (centres unmarked) [Ic] | 29.2% | 8.3% | 0% | 95.9% | 80.8% | 89.2% | 100% | 100% | 100% | 71% +/− 2.1 | 
c1ccc(N2CCN(C3CCCCCCC3)CC2)cc1 [Icc] | 46.7% | 0% | 0% | 93.3% | 0.8% | 0% | 100% | 33.3% | 0% |  | 
Clc1ccc(N2CCN(C3CCCCCC3)CC2)cc1 [Idd] |  | 86.7% | 34.2% | 100% | 100% | 98.3% | 100% | 97.5% | 97.5% |  | 
O=[N+]([O-])c1ccc(N2CCN(CC3CCCC3)CC2)cc1 [If] |  |  |  |  |  |  |  |  |  | 98% +/− 1.9 | rank among analogs for inducing locomotory defects ([2]; SAR comparison with compound Ia analogs): most potent analog to date
c1ccc(N2CCN(C3CCCCCC3)CC2)cc1 [Iff] | 24.2% | 6.7% | 0% | 98.3% | 28.3% | 0% | 100% | 51.7% | 0% |  | 
Fc1ccc(N2CCN(CC3CCCCC3)CC2)cc1 [Ig] |  |  |  |  |  |  |  |  |  |  | pest or weed control at 3.75 µM [1, 12]: 21.7%; pest or weed control at 15 µM [1, 13]: 44.2%; pest or weed control at 60 µM [1, 14]: 95%; pest or weed control at 3.75 µM [1, 15]: 0.8%; pest or weed control at 15 µM [1, 16]: 9.2%; pest or weed control at 60 µM [1, 17]: 79.2%; pest or weed control at 3.75 µM [1, 18]: 0%; pest or weed control at 15 µM [1, 19]: 4.2%; pest or weed control at 60 µM [1, 20]: 66.7%
Clc1ccc(N2CCN(CC3CCCCC3)CC2)cc1 [Ih] |  |  |  |  |  |  |  |  |  |  | pest or weed control at 3.75 µM [1, 12]: 0%; pest or weed control at 15 µM [1, 13]: 27.5%; pest or weed control at 60 µM [1, 14]: 55.7%; pest or weed control at 3.75 µM [1, 15]: 0%; pest or weed control at 15 µM [1, 16]: 0%; pest or weed control at 60 µM [1, 17]: 5.8%; pest or weed control at 3.75 µM [1, 18]: 0%; pest or weed control at 15 µM [1, 19]: 0%; pest or weed control at 60 µM [1, 20]: 10.8%
c1ccc(N2CCN(CC3CCCC3)CC2)cc1 [Ihh] | 4.2% | 0% | 0% | 70% | 1.7% | 0% | 100% | 53.3% | 5% |  | 
c1ccc(N2CCN(CC3CCCCC3)CC2)cc1 [Ii] |  |  |  |  |  |  |  |  |  | 19% +/− 8.1 | % any phene 1 h (conc.) 3.75 [1, 21]: 16.2%; % any phene 6 h (conc.) 3.75 [1, 22]: 0.0%; % any phene 24 h (conc.) 3.75 [1, 23]: 0.0%; % any phene 1 h (conc.) 15 [1, 24]: 39.2%; % any phene 6 h (conc.) 15 [1, 25]: 0.8%; % any phene 24 h (conc.) 15 [1, 26]: 0.0%; % any phene 1 h (conc.) 60 [1, 27]: 84.2%; % any phene 6 h (conc.) 60 [1, 28]: 44.2%; % any phene 24 h (conc.) 60 [1, 29]: 20.5%
N#Cc1ccc(N2CCN(CC3CCCCC3)CC2)cc1 [Ik] |  |  |  |  |  |  |  |  |  | 61% +/− 5.0 | % any phene 1 h (conc.) 3.75 [1, 21]: 8.3%; % any phene 6 h (conc.) 3.75 [1, 22]: 15.0%; % any phene 24 h (conc.) 3.75 [1, 23]: 0.0%; % any phene 1 h (conc.) 15 [1, 24]: 45.8%; % any phene 6 h (conc.) 15 [1, 25]: 37.5%; % any phene 24 h (conc.) 15 [1, 26]: 23.3%; % any phene 1 h (conc.) 60 [1, 27]: 91.7%; % any phene 6 h (conc.) 60 [1, 28]: 98.3%; % any phene 24 h (conc.) 60 [1, 29]: 100.0%
O=[N+]([O-])c1ccc(N2CCN(Cc3ccccc3)CC2)cc1 [Im] |  |  |  |  |  |  |  |  |  | 0.00% | % any phene 1 h (conc.) 3.75 [1, 21]: 0.0%; % any phene 6 h (conc.) 3.75 [1, 22]: 0.0%; % any phene 24 h (conc.) 3.75 [1, 23]: 0.0%; % any phene 1 h (conc.) 15 [1, 24]: 7.5%; % any phene 6 h (conc.) 15 [1, 25]: 3.3%; % any phene 24 h (conc.) 15 [1, 26]: 0.0%; % any phene 1 h (conc.) 60 [1, 27]: 44.2%; % any phene 6 h (conc.) 60 [1, 28]: 30.8%; % any phene 24 h (conc.) 60 [1, 29]: 0.0%
N#Cc1ccc(N2CCN(CC3CCCC3)CC2)cc1 [Ip] |  |  |  |  |  |  |  |  |  | 41% +/− 7.4 | % any phene 1 h (conc.) 3.75 [1, 21]: 0.8%; % any phene 6 h (conc.) 3.75 [1, 22]: 0.0%; % any phene 24 h (conc.) 3.75 [1, 23]: 0.0%; % any phene 1 h (conc.) 15 [1, 24]: 29.2%; % any phene 6 h (conc.) 15 [1, 25]: 10.0%; % any phene 24 h (conc.) 15 [1, 26]: 0.0%; % any phene 1 h (conc.) 60 [1, 27]: 91.3%; % any phene 6 h (conc.) 60 [1, 28]: 42.5%; % any phene 24 h (conc.) 60 [1, 29]: 62.5%
O=[N+]([O-])c1ccc(N2CCN(CC3CC3)CC2)cc1 [Iq] |  |  |  |  |  |  |  |  |  | 6% +/− 3.2 | % any phene 1 h (conc.) 3.75 [1, 21]: 0.0%; % any phene 6 h (conc.) 3.75 [1, 22]: 5.0%; % any phene 24 h (conc.) 3.75 [1, 23]: 0.0%; % any phene 1 h (conc.) 15 [1, 24]: 4.2%; % any phene 6 h (conc.) 15 [1, 25]: 29.2%; % any phene 24 h (conc.) 15 [1, 26]: 0.0%; % any phene 1 h (conc.) 60 [1, 27]: 32.5%; % any phene 6 h (conc.) 60 [1, 28]: 36.7%; % any phene 24 h (conc.) 60 [1, 29]: 4.2%
O=[N+]([O-])c1ccc(N2CCN(C3CCCCCC3)CC2)cc1 [Ir] | 43.3% | 9.2% | 0% |  | 88.3% | 30% | 100% | 100% | 100% |  | 
O=[N+]([O-])c1ccc(N2CCN(C3CCCCCCC3)CC2)cc1 [Is] | 3.3% | 0% | 0% |  | 15% | 0% | 100% | 62.5% | 13.3% |  | 
Clc1ccc(N2CCN(CC3CC4C=CC3C4)CC2)cc1 (centres unmarked) [Ix] | 89.2% | 100% | 66.7% | 100% | 100% | 100% | 100% | 100% | 100% |  | 
Fc1ccc(N2CCN(CC3CC=CCC3)CC2)cc1 (centres unmarked) [Iy] | 22.5% | 0% | 0% | 77.5% | 35% | 0% | 100% | 99.2% | 58.3% |  | 
CC1CCC(N2CCN(c3ccccc3)CC2)CC1 (centres unmarked) [Iz] | 60.8% | 0% | 0% | 96.7% | 6.7% | 0% | 99.2% | 85% | 14.2% |  | 
C1CNCCN1 [Piperazine, reference compound] |  |  |  |  |  |  |  |  |  | 0.00% | 
